# Assay results reported in patent US20240116921A1, “LACTAM (HETERO)[…] DERIVATIVES AS INHIBITORS OF ERBB2” (EnLiven Therapeutics, Inc., priority 2020, published 2024).
# Assays:
# [1] = biological target: T1, phosphorylated EGFR (pEGFR) (Homo sapiens, UniProt P00533); test: Detection of phosphorylated EGFR (pEGFR) in EGF-stimulated A431 cells; format: cell-based; conditions: A431 cells (10% FBS), 4 hours incubation, EGF 30 ng/mL 10 minutes, AlphaLISA
# T1 construct: performed to measure phosphorylated EGFR levels using A431 cells (10% FBS); endogenous in cells; host or cells: A431
# Method in brief: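 AlphaLISA read-out of EGFR phosphorylation after a 10-min EGF pulse (30 ng/mL final). A431 cells (10% FBS) had been exposed to compound for 4 h at 37 °C. IC50 was fitted from % inhibition normalised to DMSO and staurosporine control lysates.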
# [2] = biological target: T2, phosphorylated ERBB2 (pERBB2) (Homo sapiens, UniProt P04626); test: Detection of phosphorylated ERBB2 (pERBB2) by ELISA in BT-474 cells; format: cell-based; conditions: four hours incubation
# T2 construct: endogenous in cells; host or cells: BT-474
# Method in brief: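 Phospho-ERBB2 in lysates was quantified by sandwich ELISA (A450, TMB) after 4 h compound exposure at 37 °C of BT-474 cells seeded at 2.0×10^4 per well. Compounds tested at 10 µM to 0.01 nM final in four-fold steps; activity normalized to DMSO (0.1%) high and cell-free low controls.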
# [3] = biological target: Ba/F3 ERBB2 A775_G776insYVMA (Homo sapiens, UniProt P04626, DUP772-775, cells depend on it); test: Cell viability assay, Ba/F3 ERBB2 A775_G776insYVMA; format: cell-based, mouse; conditions: Ba/F3 ERBB2 YVMA cells, cell viability, 72 hours, CellTiter Glo; Table B5; read-out: Ba/F3 ERBB2 YVMA, IC50
# Method in brief: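 Viability after 72 h compound treatment (37 °C, 5% CO2) was quantified by CellTiter-Glo luminescence of intracellular ATP, with sigmoidal dose-response fitting. Cells were retrovirally engineered Ba/F3 lines whose growth depends on the mutant human ERBB2 in place of IL-3, plated at 3000 per well.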
# Ba/F3 ERBB2 A775_G776insYVMA, sequence (P04626 with tags, fused parts or gaps DUP772-775): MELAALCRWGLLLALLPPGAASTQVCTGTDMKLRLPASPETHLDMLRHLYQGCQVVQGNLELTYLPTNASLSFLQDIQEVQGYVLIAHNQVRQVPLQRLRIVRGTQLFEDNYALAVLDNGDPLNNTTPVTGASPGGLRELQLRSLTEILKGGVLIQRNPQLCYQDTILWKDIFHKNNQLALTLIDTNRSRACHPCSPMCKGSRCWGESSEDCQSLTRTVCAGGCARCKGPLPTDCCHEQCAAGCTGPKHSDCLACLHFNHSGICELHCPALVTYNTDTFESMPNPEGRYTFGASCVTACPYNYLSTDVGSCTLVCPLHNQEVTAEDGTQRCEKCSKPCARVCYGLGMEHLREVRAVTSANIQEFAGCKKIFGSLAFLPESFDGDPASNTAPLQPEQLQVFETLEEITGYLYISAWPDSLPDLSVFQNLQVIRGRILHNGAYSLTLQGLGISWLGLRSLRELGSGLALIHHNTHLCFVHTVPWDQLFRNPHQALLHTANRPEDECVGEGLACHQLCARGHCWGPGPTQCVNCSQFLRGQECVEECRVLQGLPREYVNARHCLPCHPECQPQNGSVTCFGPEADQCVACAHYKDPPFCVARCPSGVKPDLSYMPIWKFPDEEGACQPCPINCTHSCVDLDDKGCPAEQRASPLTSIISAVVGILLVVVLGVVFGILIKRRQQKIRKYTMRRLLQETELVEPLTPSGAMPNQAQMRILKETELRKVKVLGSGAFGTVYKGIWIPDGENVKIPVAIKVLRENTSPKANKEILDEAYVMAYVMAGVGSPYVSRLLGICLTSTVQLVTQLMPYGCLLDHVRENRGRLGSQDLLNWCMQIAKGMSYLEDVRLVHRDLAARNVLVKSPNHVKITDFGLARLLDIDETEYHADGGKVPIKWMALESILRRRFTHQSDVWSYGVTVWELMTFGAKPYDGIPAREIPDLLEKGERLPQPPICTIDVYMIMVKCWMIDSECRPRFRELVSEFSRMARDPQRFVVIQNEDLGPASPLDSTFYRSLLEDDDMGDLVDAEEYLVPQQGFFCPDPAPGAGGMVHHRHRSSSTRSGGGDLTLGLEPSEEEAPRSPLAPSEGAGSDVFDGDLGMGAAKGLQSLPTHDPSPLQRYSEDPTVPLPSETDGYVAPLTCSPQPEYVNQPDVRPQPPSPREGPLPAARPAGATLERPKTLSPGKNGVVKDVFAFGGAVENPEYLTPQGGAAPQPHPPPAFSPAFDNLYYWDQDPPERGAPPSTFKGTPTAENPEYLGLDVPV
# T1 sequence (P00533 25-1210): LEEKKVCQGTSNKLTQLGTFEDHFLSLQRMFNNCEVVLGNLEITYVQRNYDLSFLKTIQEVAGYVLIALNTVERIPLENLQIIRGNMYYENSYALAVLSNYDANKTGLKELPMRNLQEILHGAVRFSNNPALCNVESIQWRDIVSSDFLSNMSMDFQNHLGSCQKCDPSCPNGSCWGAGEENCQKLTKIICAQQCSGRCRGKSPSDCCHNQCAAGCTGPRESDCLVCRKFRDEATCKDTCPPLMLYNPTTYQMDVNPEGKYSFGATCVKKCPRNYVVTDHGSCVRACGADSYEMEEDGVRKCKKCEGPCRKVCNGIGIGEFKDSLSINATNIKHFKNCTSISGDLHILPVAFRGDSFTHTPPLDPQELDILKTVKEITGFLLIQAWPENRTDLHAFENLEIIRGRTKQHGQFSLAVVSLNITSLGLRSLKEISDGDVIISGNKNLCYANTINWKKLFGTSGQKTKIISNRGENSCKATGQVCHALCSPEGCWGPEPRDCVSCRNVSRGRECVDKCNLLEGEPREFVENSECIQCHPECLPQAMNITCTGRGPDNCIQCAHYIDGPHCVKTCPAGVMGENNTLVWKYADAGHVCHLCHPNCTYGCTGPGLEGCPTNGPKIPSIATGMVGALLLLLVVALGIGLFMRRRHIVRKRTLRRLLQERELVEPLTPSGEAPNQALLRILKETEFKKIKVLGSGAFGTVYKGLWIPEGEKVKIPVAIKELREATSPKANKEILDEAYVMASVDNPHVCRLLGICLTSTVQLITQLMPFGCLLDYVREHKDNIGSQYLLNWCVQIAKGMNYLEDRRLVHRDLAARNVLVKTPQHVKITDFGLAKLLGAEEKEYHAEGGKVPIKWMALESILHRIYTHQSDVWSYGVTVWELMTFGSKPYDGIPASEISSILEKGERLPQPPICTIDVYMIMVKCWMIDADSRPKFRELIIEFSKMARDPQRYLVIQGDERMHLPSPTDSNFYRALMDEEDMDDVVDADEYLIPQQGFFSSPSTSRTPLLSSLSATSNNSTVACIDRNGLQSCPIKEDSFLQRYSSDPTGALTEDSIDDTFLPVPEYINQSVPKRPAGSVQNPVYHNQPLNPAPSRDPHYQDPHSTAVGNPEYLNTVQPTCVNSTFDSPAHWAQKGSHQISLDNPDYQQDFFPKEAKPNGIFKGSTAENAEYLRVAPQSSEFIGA
# T2 sequence (P04626 23-1255): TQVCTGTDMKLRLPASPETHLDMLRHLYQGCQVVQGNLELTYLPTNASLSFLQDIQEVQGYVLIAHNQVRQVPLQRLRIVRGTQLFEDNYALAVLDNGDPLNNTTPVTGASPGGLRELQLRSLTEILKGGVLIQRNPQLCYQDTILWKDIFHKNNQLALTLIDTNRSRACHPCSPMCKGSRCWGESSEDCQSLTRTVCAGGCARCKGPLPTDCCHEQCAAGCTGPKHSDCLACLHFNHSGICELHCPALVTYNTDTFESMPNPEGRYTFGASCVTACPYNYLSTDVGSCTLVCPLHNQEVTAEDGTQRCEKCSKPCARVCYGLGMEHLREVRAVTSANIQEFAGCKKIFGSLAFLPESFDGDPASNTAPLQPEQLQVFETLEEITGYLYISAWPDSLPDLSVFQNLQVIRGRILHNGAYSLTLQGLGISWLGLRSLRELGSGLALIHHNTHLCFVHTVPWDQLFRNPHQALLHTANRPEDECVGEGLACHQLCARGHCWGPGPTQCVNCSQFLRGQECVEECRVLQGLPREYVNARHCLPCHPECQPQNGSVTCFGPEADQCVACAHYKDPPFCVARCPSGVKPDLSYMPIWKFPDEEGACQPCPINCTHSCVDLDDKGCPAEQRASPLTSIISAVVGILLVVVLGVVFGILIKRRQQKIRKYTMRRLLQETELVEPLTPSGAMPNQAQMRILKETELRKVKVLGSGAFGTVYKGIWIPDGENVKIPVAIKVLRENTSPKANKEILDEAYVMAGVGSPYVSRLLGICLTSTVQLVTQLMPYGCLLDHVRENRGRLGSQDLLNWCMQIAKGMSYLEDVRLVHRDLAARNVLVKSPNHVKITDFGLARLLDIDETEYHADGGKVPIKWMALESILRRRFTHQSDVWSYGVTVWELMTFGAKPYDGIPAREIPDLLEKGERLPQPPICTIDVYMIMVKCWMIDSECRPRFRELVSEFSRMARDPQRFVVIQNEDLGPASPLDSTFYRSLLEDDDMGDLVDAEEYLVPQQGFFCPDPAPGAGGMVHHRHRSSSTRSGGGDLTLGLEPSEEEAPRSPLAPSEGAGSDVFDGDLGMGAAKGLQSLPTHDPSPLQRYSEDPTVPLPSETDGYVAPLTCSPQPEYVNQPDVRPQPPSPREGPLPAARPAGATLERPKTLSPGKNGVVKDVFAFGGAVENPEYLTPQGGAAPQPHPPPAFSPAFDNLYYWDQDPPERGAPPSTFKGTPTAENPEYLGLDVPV
IC50 [1],IC50 [2],SMILES,GI50 [3]
2970 nM,5.43 nM,"Cc1cc(Nc2ncnc3cnc(N4CC/C(=C\CN(C)C)C4=O)cc23)ccc1Oc1ccn2ncnc2c1 [Compound 74, (3E)-3-[2-(dimethylamino)ethylidene]-1-{4-[(3-methyl-4-{[1,2,4]triazolo[1,5-a]pyridin-7-yloxy}phenyl)amino]pyrido[3,4-d]pyrimidin-6-yl}pyrrolidin-2-one]",5.17 nM
> 10000 nM,401 nM,"Cc1cc(Nc2ncnc3ccc(N4CC(C)C(=CCN(C)C)C4=O)nc23)ccc1Oc1ccc2c(c1)nnn2C (single isomer, unassigned) [Example S126, Enantiomer #2, 3-[2-(dimethylamino)ethylidene]-4-methyl-1-[4-({3-methyl-4-[(1-methyl-1,2,3-benzotriazol-5-yl)oxy]phenyl}amino)pyrido[3,2-d]pyrimidin-6-yl]pyrrolidin-2-one]",205 nM
1540 nM,42 nM,"Cc1cc(Nc2ncnc3ccc(N4CC/C(=C\CN(C)C)C4=O)nc23)ccc1Cc1ccc2c(c1)ncn2C [Compound 54, (3E)-3-[2-(dimethylamino)ethylidene]-1-[4-({3-methyl-4-[(1-methyl-1,3-benzodiazol-5-yl)methyl]phenyl}amino)pyrido[3,2-d]pyrimidin-6-yl]pyrrolidin-2-one]",5.37 nM
> 10000 nM,18.9 nM,"CN(C)C/C=C1\CCN(c2ccc3ncnc(Nc4ccc(Oc5ccc6c(c5)ncn6C)c(F)c4)c3n2)C1=O [Compound 91, (3E)-3-[2-(dimethylamino)ethylidene]-1-[4-({3-fluoro-4-[(1-methyl-1,3-benzodiazol-5-yl)oxy]phenyl}amino)pyrido[3,2-d]pyrimidin-6-yl]pyrrolidin-2-one]",2.08 nM
> 10000 nM,21.3 nM,"CN(C)C/C=C1\CCN(c2ccc3ncnc(Nc4ccc(Oc5ccc6c(c5)ncn6C)cc4)c3n2)C1=O [Compound 92, (3E)-3-[2-(dimethylamino)ethylidene]-1-[4-({4-[(1-methyl-1,3-benzodiazol-5-yl)oxy]phenyl}amino)pyrido[3,2-d]pyrimidin-6-yl]pyrrolidin-2-one]",3.12 nM
1110 nM,99.1 nM,"CN(C)C/C=C1\CCN(c2ccc3ncnc(Nc4ccc(Oc5cccnc5)c(F)c4)c3n2)C1=O [Compound 126, (3E)-3-[2-(dimethylamino)ethylidene]-1-(4-{[3-fluoro-4-(pyridin-3-yloxy)phenyl]amino}pyrido[3,2-d]pyrimidin-6-yl)pyrrolidin-2-one]",34 nM
299 nM,40.9 nM,"Cc1cc(Nc2ncnc3ccc(N4CC(C)C(=CCN(C)C)C4=O)nc23)ccc1Oc1ccc2c(c1)nnn2C (single isomer, unassigned) [Example S126, Enantiomer #1, 3-[2-(dimethylamino)ethylidene]-4-methyl-1-[4-({3-methyl-4-[(1-methyl-1,2,3-benzotriazol-5-yl)oxy]phenyl}amino)pyrido[3,2-d]pyrimidin-6-yl]pyrrolidin-2-one]",2.04 nM
1140 nM,42.8 nM,"CN(C)C/C=C1\CCN(c2cc3c(Nc4ccc(Oc5cccnc5)c(F)c4)ncnc3cn2)C1=O [Compound 125, (3E)-3-[2-(dimethylamino)ethylidene]-1-(4-{[3-fluoro-4-(pyridin-3-yloxy)phenyl]amino}pyrido[3,4-d]pyrimidin-6-yl)pyrrolidin-2-one]",56 nM
942 nM,40.3 nM,"CN(C)C/C=C1\CCN(c2ccc3ncnc(Nc4ccc(Oc5ccc6c(c5)ncn6C)c(Cl)c4)c3n2)C1=O [Compound 98, (E)-1-(4-((3-chloro-4-((1-methyl-1H-benzo[d]imidazol-5-yl)oxy)phenyl)amino)pyrido[3,2-d]pyrimidin-6-yl)-3-(2-(dimethylamino)ethylidene)pyrrolidin-2-one]",1.81 nM
